Experimental data from patent US20160022684A1, “BET INHIBITOR AND BRUTON'S TYROSINE KINASE INHIBITOR COMBINATIONS” (Pharmacyclics LLC, priority 2014, published 2016).

Legend:
OCI-LY10 = experiment: Combined drug treatment cell viability (CellTiter-Glo), ibrutinib with BET inhibitors, OCI-LY10; type: cell-based; details: OCI-LY-10, JQ1 1 uM, OTX015 1 uM or medium alone (row), 3 days
Description: (§1) The DLBCL cell lines used during the experiments included TMD8, OCI-LY3, OCI-LY10, U-2932 and SU-DHL-2. DLBCL cells at either 1×10^4 cells or 2×10^4 cells were plated onto each well of a 96-W plate (Table 1). […] The 96-W plate was then incubated for 3 days. Cell viability was examined using a CellTiter-Glo assay. A 40 μL of CellTiter-Glo reagent was added directly into each well of the 96-W plate. The plate was then shaken on a Shaker ([…]) at speed 5 for 10-20 min at room temperature. Next, about 100 μL of the mixed medium was transferred to a white, non-transparent, flat bottom 96-W plate for assaying. […] Measurements were taken at room temperature. CellTiter-Glow reagents were thawed prior to use. Cells pre-plated onto a second 96-W plate and incubated at room temperature for 30 minutes were used for calibration purposes. […] CI is a quantitative description of the interaction property of the combination of two drugs.

TMD8 = experiment: Combined drug treatment cell viability (CellTiter-Glo), ibrutinib with BET inhibitors, TMD8; type: cell-based; details: JQ1 20 nM, OTX015 100 nM or medium alone (row), 3 days
Description: as §1

[1] = system: activated B-cell like (ABC) subtype of DLBCL; details: patients with ABC subtype of DLBCL; cited from earlier work
OCI-LY3 = experiment: Combined drug treatment cell viability (CellTiter-Glo), ibrutinib with BET inhibitors, OCI-LY3; type: cell-based; details: OCI-LY-3, JQ1 1 uM, OTX015 1 uM or medium alone (row), 3 days
Description: as §1

U-2932 = experiment: Combined drug treatment cell viability (CellTiter-Glo), ibrutinib with BET inhibitors, U-2932; type: cell-based; details: U2932, JQ1 20 nM, OTX015 50 nM (Table 2) or medium alone (row), 3 days
Description: as §1

SU-DHL-2 = experiment: Combined drug treatment cell viability (CellTiter-Glo), ibrutinib with BET inhibitors, SU-DHL-2; type: cell-based; details: JQ1 100 nM, OTX015 1 uM (Table 2) or medium alone (row), 3 days
Description: as §1

[2] = ibrutinib 0.0256 nM with I-BET151 5 uM
[3] = ibrutinib 0.64 nM with I-BET151 5 uM
[4] = ibrutinib 3.2 nM with I-BET151 5 uM
[5] = ibrutinib 16 nM with I-BET151 5 uM
[6] = ibrutinib 80 nM with I-BET151 5 uM
[7] = ibrutinib 400 nM with I-BET151 5 uM
[8] = ibrutinib 2000 nM with I-BET151 5 uM
[9] = ibrutinib 10000 nM with I-BET151 5 uM
[10] = ibrutinib […] with I-BET151 5 uM
[11] = ibrutinib 0.0256 nM with I-BET151 200 nM
[12] = ibrutinib 0.64 nM with I-BET151 200 nM
[13] = ibrutinib 3.2 nM with I-BET151 200 nM
[14] = ibrutinib 16 nM with I-BET151 200 nM
[15] = ibrutinib 80 nM with I-BET151 200 nM
[16] = ibrutinib 400 nM with I-BET151 200 nM
[17] = ibrutinib 2000 nM with I-BET151 200 nM
[18] = ibrutinib 10000 nM with I-BET151 200 nM
[19] = ibrutinib […] with I-BET151 200 nM

Q: Which luminescent signals (OCI-LY10; [2]) does the source give for C=CC(=O)N1CCC[C@@H](n2nc(-c3ccc(Oc4ccccc4)cc3)c3c(N)ncnc32)C1 [ibrutinib, 1-((R)-3-(4-amino-3-(4-phenoxyphenyl)-1H-pyrazolo[3,4-d]pyrimidin-1-yl)piperidin-1-yl)prop-2-en-1-one] here?
A: 61548.88

Q: What about the luminescent signals (OCI-LY10; [3]) of the same compound?
A: 63983.91

Q: What about the luminescent signals (OCI-LY10; [4]) of the same compound?
A: 51190.81

Q: And the luminescent signals (OCI-LY10; [5])?
A: 27324.38

Q: And the luminescent signals (OCI-LY10; [6])?
A: 23511.43

Q: And the luminescent signals (OCI-LY10; [7])?
A: 23784.91

Q: What about the luminescent signals (OCI-LY10; [8]) of the same compound?
A: 24452.84

Q: And the luminescent signals (OCI-LY10; [9])?
A: 24826.24

Q: What about the luminescent signals (OCI-LY10; [10]) of the same compound?
A: 68196.56

Q: What about the luminescent signals (TMD8; [11]) of the same compound?
A: 32496.06

Q: What about the luminescent signals (TMD8; [12]) of the same compound?
A: 29180.29

Q: What about the luminescent signals (TMD8; [13]) of the same compound?
A: 31383.77

Q: And the luminescent signals (TMD8; [14])?
A: 27190.31

Q: What about the luminescent signals (TMD8; [15]) of the same compound?
A: 28263.05

Q: What about the luminescent signals (TMD8; [16]) of the same compound?
A: 25674.76

Q: And the luminescent signals (TMD8; [17])?
A: 23421.2

Q: And the luminescent signals (TMD8; [18])?
A: 10819.72

Q: And the luminescent signals (TMD8; [19])?
A: 32828.16

Q: What about the overall response rate [1] of the same compound?
A: 41%

Q: What about the overall survival [1] of the same compound?
A: 9.7 month

Q: What about the luminescent signals (OCI-LY3; [2]) of the same compound?
A: 63957.7

Q: And the luminescent signals (OCI-LY3; [3])?
A: 63322.7

Q: What about the luminescent signals (OCI-LY3; [4]) of the same compound?
A: 66789.02

Q: What about the luminescent signals (OCI-LY3; [5]) of the same compound?
A: 64655.7

Q: And the luminescent signals (OCI-LY3; [6])?
A: 68972.2

Q: And the luminescent signals (OCI-LY3; [7])?
A: 64472.02

Q: And the luminescent signals (OCI-LY3; [8])?
A: 55749.79

Q: And the luminescent signals (OCI-LY3; [9])?
A: 63477.51

Q: What about the luminescent signals (OCI-LY3; [10]) of the same compound?
A: 59441.78

Q: And the luminescent signals (U-2932; [11])?
A: 63123.8

Q: What about the luminescent signals (U-2932; [12]) of the same compound?
A: 53722.16

Q: And the luminescent signals (U-2932; [13])?
A: 53031.79

Q: And the luminescent signals (U-2932; [14])?
A: 51023.93

Q: What about the luminescent signals (U-2932; [15]) of the same compound?
A: 49777.58

Q: What about the luminescent signals (U-2932; [16]) of the same compound?
A: 46009.54

Q: And the luminescent signals (U-2932; [17])?
A: 46858.01

Q: And the luminescent signals (U-2932; [18])?
A: 37935.94

Q: And the luminescent signals (U-2932; [19])?
A: 57150.28

Q: And the luminescent signals (SU-DHL-2; ibrutinib 0.0256 nM with I-BET151 2 uM)?
A: 141202

Q: And the luminescent signals (SU-DHL-2; ibrutinib 0.64 nM with I-BET151 2 uM)?
A: 159399

Q: And the luminescent signals (SU-DHL-2; ibrutinib 3.2 nM with I-BET151 2 uM)?
A: 161613.5

Q: And the luminescent signals (SU-DHL-2; ibrutinib 16 nM with I-BET151 2 uM)?
A: 155353.5

Q: And the luminescent signals (SU-DHL-2; ibrutinib 80 nM with I-BET151 2 uM)?
A: 164140.7

Q: And the luminescent signals (SU-DHL-2; ibrutinib 400 nM with I-BET151 2 uM)?
A: 159908.6

Q: What about the luminescent signals (SU-DHL-2; ibrutinib 2000 nM with I-BET151 2 uM) of the same compound?
A: 154426.1

Q: What about the luminescent signals (SU-DHL-2; ibrutinib 10000 nM with I-BET151 2 uM) of the same compound?
A: 111485.8

Q: And the luminescent signals (SU-DHL-2; ibrutinib […] with I-BET151 2 uM)?
A: 146159.1
